The text below walks through data of US10894784B2, “Heteroarylbenzimidazole compounds” (BAYER PHARMA AKTIENGESELLSCHAFT, priority 2015, dated 2021).

The target in one experiment is TBK1 (Homo sapiens (Human), UniProt Q9UHD2). In words: TBK1 low ATP kinase assay (in vitro assay 1). Type of experiment: biochemical. The settings on record: TBK1 low ATP kinase assay IC50, in vitro assay 1.
Sequence of TBK1 (Q9UHD2 whole entry): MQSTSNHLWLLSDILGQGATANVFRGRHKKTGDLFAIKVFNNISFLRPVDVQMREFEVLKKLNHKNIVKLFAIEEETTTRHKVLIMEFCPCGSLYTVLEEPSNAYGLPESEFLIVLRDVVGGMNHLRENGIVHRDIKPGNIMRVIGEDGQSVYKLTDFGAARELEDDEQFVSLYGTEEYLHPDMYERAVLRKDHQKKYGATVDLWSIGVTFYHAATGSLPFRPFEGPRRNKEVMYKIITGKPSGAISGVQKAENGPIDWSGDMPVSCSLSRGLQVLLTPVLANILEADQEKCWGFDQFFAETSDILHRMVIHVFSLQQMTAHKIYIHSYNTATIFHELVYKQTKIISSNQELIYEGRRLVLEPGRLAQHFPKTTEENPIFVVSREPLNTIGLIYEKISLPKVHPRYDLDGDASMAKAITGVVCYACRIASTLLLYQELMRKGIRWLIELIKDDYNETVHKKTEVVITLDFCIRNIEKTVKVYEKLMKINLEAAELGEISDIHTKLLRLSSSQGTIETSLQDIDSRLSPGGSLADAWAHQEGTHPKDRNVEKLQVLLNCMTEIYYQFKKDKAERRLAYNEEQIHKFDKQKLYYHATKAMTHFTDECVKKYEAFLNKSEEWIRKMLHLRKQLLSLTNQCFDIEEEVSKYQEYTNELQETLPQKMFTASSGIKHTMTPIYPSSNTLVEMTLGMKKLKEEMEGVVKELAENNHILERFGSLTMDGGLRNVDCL
Molecule `CC(c1ccnc(Nc2nc3ccc(-c4cnn(CC5CC5)c4)cc3[nH]2)c1)N1CCN(C(=O)CC(F)(F)F)CC1` (single isomer, unassigned) [Example 39.02.02, 1-(4-{(1R or 1S)-1-[2-({6-[1-(cyclopropylmethyl)-1H-pyrazol-4-yl]-1H-benzimidazol-2-yl}amino)pyridin-4-yl]ethyl}piperazin-1-yl)-3,3,3-trifluoropropan-1-one] had an IC50 of 1.8 nM.

The same experiment, now with this note: in vitro assay 1, read-out: TBK1 low ATP kinase assay IC50.
Take `Cc1cc(-c2ccc3nc(Nc4cc(CN5CCN(C(=O)C6CC6)CC5)ccn4)[nH]c3c2)nc(C)n1` [Example 31.02, cyclopropyl{4-[(2-{[6-(2,6-dimethylpyrimidin-4-yl)-1H-benzimidazol-2-yl]amino}pyridin-4-yl)methyl]piperazin-1-yl}methanone]: the IC50 is 77 nM.
Regarding `O=C(CC(F)(F)F)N1CCN(Cc2ccnc(Nc3nc4ccc(-c5cc(NC6CC6)ncn5)cc4[nH]3)c2)CC1` [Example 151.02, 1-(4-{[2-({6-[6-(cyclopropylamino)pyrimidin-4-yl]-1H-benzimidazol-2-yl}amino)pyridin-4-yl]methyl}piperazin-1-yl)-3,3,3-trifluoropropan-1-one], the half-inhibitory concentration (IC50) came out at 2.1 nM.
`CCOc1nccc(-c2ccc3nc(Nc4cc(CN5CCN(C(=O)CC6CC6)CC5)ccn4)[nH]c3c2)n1` [Example 26.01.05, 2-cyclopropyl-1-{4-[(2-{[6-(2-ethoxypyrimidin-4-yl)-1H-benzimidazol-2-yl]amino}pyridin-4-yl)methyl]piperazin-1-yl}ethanone]: the IC50 came to 14.1 nM.
Consider `CC(c1ccnc(Nc2nc3ccc(-c4ccnn4C)cc3[nH]2)c1)N1CCN(C(=O)CC(F)(F)F)CC1` (single isomer, unassigned) [Example 123.02, 3,3,3-trifluoro-1-{4-[(1R or 1S)-1-(2-{[6-(1-methyl-1H-pyrazol-5-yl)-1H-benzimidazol-2-yl]amino}pyridin-4-yl)ethyl]piperazin-1-yl}propan-1-one], for which the IC50 turned out to be 35 nM.
Regarding `Cc1noc(-c2ccc3nc(Nc4cc(CN5CCN(C(=O)C6CCC6)CC5)ccn4)[nH]c3c2)n1` [Example 16.01.05, cyclobutyl{4-[(2-{[6-(3-methyl-1,2,4-oxadiazol-5-yl)-1H-benzimidazol-2-yl]amino}pyridin-4-yl)methyl]piperazin-1-yl}methanone], the half-inhibitory concentration (IC50) was found to be 146 nM.
On to `O=C(C1CC1)N1CCN(Cc2ccnc(Nc3nc4ccc(-c5ncnc(NC6CCC6)c5F)cc4[nH]3)c2)CC1` [Example 194.03, (4-{[2-({6-[6-(cyclobutylamino)-5-fluoropyrimidin-4-yl]-1H-benzimidazol-2-yl}amino)pyridin-4-yl]methyl}piperazin-1-yl)(cyclopropyl)methanone], for which the IC50 was 49.4 nM.
On the same count and under the same terms, as for `CC(C)Oc1cnccc1-c1ccc2nc(Nc3cc(CN4CCN(C(=O)CC(F)(F)F)CC4)ccn3)[nH]c2c1` [Example 06.01, 3,3,3-trifluoro-1-(4-{[2-({6-[3-(propan-2-yloxy)pyridin-4-yl]-1H-benzimidazol-2-yl}amino)pyridin-4-yl]methyl}piperazin-1-yl)propan-1-one], the figure is 4.31 nM; as for `O=C(CC(F)(F)F)N1CCN(Cc2ccnc(Nc3nc4ccc(-c5cnn(CC6CC6)c5)cc4[nH]3)c2)CC1` [Example 39.01.02, 1-(4-{[2-({6-[1-(cyclopropylmethyl)-1H-pyrazol-4-yl]-1H-benzimidazol-2-yl}amino)pyridin-4-yl]methyl}piperazin-1-yl)-3,3,3-trifluoropropan-1-one], 5.89 nM.
Take `Cc1noc(-c2ccc3nc(Nc4cc(CN5CCN(C(=O)C(C)(C)O)CC5)ccn4)[nH]c3c2)n1` [Example 101.16, 2-hydroxy-2-methyl-1-{4-[(2-{[6-(3-methyl-1,2,4-oxadiazol-5-yl)-1H-benzimidazol-2-yl]amino}pyridin-4-yl)methyl]piperazin-1-yl}propan-1-one]: the IC50 turned out to be 190 nM.
For the molecule `CC(c1ccnc(Nc2nc3ccc(-c4cc(C(F)F)ncn4)cc3[nH]2)c1)N1CCN(C(=O)CC(F)(F)F)CC1` (single isomer, unassigned) [Example 174.02, 1-(4-{(1R or 1S)-1-[2-({6-[6-(difluoromethyl)pyrimidin-4-yl]-1H-benzimidazol-2-yl}amino)pyridin-4-yl]ethyl}piperazin-1-yl)-3,3,3-trifluoropropan-1-one], the half-maximal inhibitory concentration (IC50) came out at 3.63 nM.
`Cc1noc(-c2ccc3nc(Nc4cc(CN5CCN(C(=O)c6ccco6)CC5)ccn4)[nH]c3c2)n1` [Example 101.14, furan-2-yl{4-[(2-{[6-(3-methyl-1,2,4-oxadiazol-5-yl)-1H-benzimidazol-2-yl]amino}pyridin-4-yl)methyl]piperazin-1-yl}methanone]: the concentration for half-maximal inhibition (IC50) was 430 nM.
For the molecule `Cc1ncc(C)c(-c2ccc3nc(Nc4cc(CN5CCN(C(=O)C6CCC6)CC5)ccn4)[nH]c3c2)n1` [Example 33.04, cyclobutyl{4-[(2-{[6-(2,5-dimethylpyrimidin-4-yl)-1H-benzimidazol-2-yl]amino}pyridin-4-yl)methyl]piperazin-1-yl}methanone], the half-inhibitory concentration (IC50) is 2120 nM.
On the same count and under the same terms, the value for `COc1cncnc1-c1ccc2nc(Nc3cc(CN4CCN(S(=O)(=O)CCC(F)(F)F)CC4)ccn3)[nH]c2c1` [Example 35.01.09, 6-(5-methoxypyrimidin-4-yl)-N-[4-({4-[(3,3,3-trifluoropropyl)sulfonyl]piperazin-1-yl}methyl)pyridin-2-yl]-1H-benzimidazol-2-amine] was 40.6 nM; that for `CC(c1ccnc(Nc2nc3ccc(-c4cc(C(F)(F)F)ncn4)cc3[nH]2)c1)N1CCN(C(=O)C2CC2)CC1` (racemic) [Example 29.01.02, (rac)-cyclopropyl(4-{1-[2-({6-[6-(trifluoromethyl)pyrimidin-4-yl]-1H-benzimidazol-2-yl}amino)pyridin-4-yl]ethyl}piperazin-1-yl)methanone] was 3.47 nM.
For the molecule `O=C(CC(F)(F)F)N1CCN(Cc2ccnc(Nc3nc4ccc(-c5cc(OCC6CC6)ncn5)cc4[nH]3)c2)CC1` [Example 80.02, 1-(4-{[2-({6-[6-(cyclopropylmethoxy)pyrimidin-4-yl]-1H-benzimidazol-2-yl}amino)pyridin-4-yl]methyl}piperazin-1-yl)-3,3,3-trifluoropropan-1-one], the IC50 came to 4.5 nM.
As to `COc1cc(-c2ccc3nc(Nc4cc(CN5CCN(C(=O)OC(C)(C)C)CC5)ccn4)[nH]c3c2)ncn1` [Example 34.01.01, tert-butyl 4-[(2-{[6-(6-methoxypyrimidin-4-yl)-1H-benzimidazol-2-yl]amino}pyridin-4-yl)methyl]piperazine-1-carboxylate], the IC50 is 50.6 nM.
As for `Cc1ncnc(-c2ccc3nc(Nc4cc(CN5CCN(C(=O)CC(F)(F)F)CC5)ccn4)[nH]c3c2)c1C` [Example 32.02, 1-{4-[(2-{[6-(5,6-dimethylpyrimidin-4-yl)-1H-benzimidazol-2-yl]amino}pyridin-4-yl)methyl]piperazin-1-yl}-3,3,3-trifluoropropan-1-one], the 50% inhibitory concentration (IC50) was 1170 nM.
As for `Cc1nccc(-c2ccc3nc(Nc4cc(C(C)N5CCN(C(=O)C6CC6)CC5)ccn4)[nH]c3c2)n1` (single isomer, unassigned) [Example 24.05.04.A, cyclopropyl{4-[(1R or 1S)-1-(2-{[6-(2-methylpyrimidin-4-yl)-1H-benzimidazol-2-yl]amino}pyridin-4-yl)ethyl]piperazin-1-yl}methanone], the IC50 is 6.67 nM.
As to `Cc1cc(-c2ccc3nc(Nc4cc(CN5CCN(C(=O)CC(F)(F)F)CC5)ccn4)[nH]c3c2)c(F)cn1` [Example 131.02, 3,3,3-trifluoro-1-{4-[(2-{[6-(5-fluoro-2-methylpyridin-4-yl)-1H-benzimidazol-2-yl]amino}pyridin-4-yl)methyl]piperazin-1-yl}propan-1-one], the 50% inhibitory concentration (IC50) was 62 nM.
Regarding `Cc1cc(-c2ccc3nc(Nc4cc(C(C)N5CCN(C(=O)C6CCC6)CC5)ccn4)[nH]c3c2)ncn1` (racemic) [Example 30.02.02, (rac)-cyclobutyl{4-[1-(2-{[6-(6-methylpyrimidin-4-yl)-1H-benzimidazol-2-yl]amino}pyridin-4-yl)ethyl]piperazin-1-yl}methanone], the IC50 was 7.86 nM.
Regarding `O=C(CC(F)(F)F)N1CCN(Cc2ccnc(Nc3nc4ccc(-c5cc(N6CCOCC6)ncn5)cc4[nH]3)c2)CC1` [Example 94.01, 3,3,3-trifluoro-1-(4-{[2-({6-[6-(morpholin-4-yl)pyrimidin-4-yl]-1H-benzimidazol-2-yl}amino)pyridin-4-yl]methyl}piperazin-1-yl)propan-1-one], the IC50 was found to be 7.2 nM.
As to `COc1cnc(OCC2CC2)nc1-c1ccc2nc(Nc3cc(CN4CCN(C(=O)OC(C)(C)C)CC4)ccn3)[nH]c2c1` [Example 64.01.01, tert-butyl 4-{[2-({6-[2-(cyclopropylmethoxy)-5-methoxypyrimidin-4-yl]-1H-benzimidazol-2-yl}amino)pyridin-4-yl]methyl}piperazine-1-carboxylate], the half-maximal inhibitory concentration (IC50) is 217 nM.
As to `COc1c(C)ncnc1-c1ccc2nc(Nc3cc(C(C)N4CCN(C(=O)C5CC5)CC4)ccn3)[nH]c2c1` (single isomer, unassigned) [Example 83.04, cyclopropyl{4-[(1R or 1S)-1-(2-{[6-(5-methoxy-6-methylpyrimidin-4-yl)-1H-benzimidazol-2-yl]amino}pyridin-4-yl)ethyl]piperazin-1-yl}methanone], the half-inhibitory concentration (IC50) was found to be 1.5 nM.
Consider `CN(C)c1ccnc(-c2ccc3nc(Nc4cc(CN5CCN(C(=O)CC(F)(F)F)CC5)ccn4)[nH]c3c2)n1` [Example 181.02, 1-(4-{[2-({6-[4-(dimethylamino)pyrimidin-2-yl]-1H-benzimidazol-2-yl}amino)pyridin-4-yl]methyl}piperazin-1-yl)-3,3,3-trifluoropropan-1-one], for which the IC50 was found to be 152 nM.
Consider `Cc1cc(-c2ccc3nc(Nc4cc(C(C)N5CCN(C(=O)C6CC6)CC5)ccn4)[nH]c3c2)ncn1` (single isomer, unassigned) [Example 30.03.03.A, cyclopropyl{4-[(1R or 1S)-1-(2-{[6-(6-methylpyrimidin-4-yl)-1H-benzimidazol-2-yl]amino}pyridin-4-yl)ethyl]piperazin-1-yl}methanone], for which the IC50 was determined as 3.06 nM.
